Molecules are shown by their SMILES. Where two headings read alike, the source gives them in different places.

Type in all cases: cell-based
Experiment [1] addresses T1, low affinity zinc uptake system (Zrt2p) (Saccharomyces cerevisiae, UniProt Q12436).
T1 construct: endogenous in cells; host or cells: S. cerevisiae ZHY1 (zrt1::LEU2) and zinc-replete DY1457; some values come from ZHY1 carrying pMC4 (multicopy genomic ZRT2) or pOE2 (ZRT2 ORF under GAL1)
Particulars: for uptake rate of radioactive zinc, % of the control rate / effect on zinc uptake by the low affinity system: 200 μM added metal, zrt1 mutant cells; for zinc accumulation: 30° C., 10 μM 65Zn; for inhibition of pMC4- and pOE2-dependent zinc uptake activity: ZRT2 overexpressing zrt1 cells. How it is done:
(§1) Zinc uptake assays were performed as described previously for iron uptake (Eide et al. J. Biol. Chem. 267:20774-20781) except that ^65ZnCl2 (Amersham Corp., Arlington Heights, Ill.) and LZM-EDTA were substituted for ^59FeCl3 and LIM-EDTA. Cells were incubated at 30° C. with ^65Zn for five minutes, filtered, and washed with 10 ml ice-cold SSW. Cell-associated radioactivity was measured by liquid scintillation. Kinetic values were derived using KinetAsyst software (IntelliKinetics, Princeton, N.J.). Zinc accumulation was measured in cells grown in LZM medium supplemented with […] ^65Zn plus nonradioactive zinc to the indicated final concentration. Aliquots (0.5 ml) were filtered, washed with 10 ml ice-cold SSW, and counted by liquid scintillation. b-galactosidase activity was assayed as described by Guarente (Guarante, L. (1983) Methods Enzymol101:181-191).
(§2) Zinc uptake assays were performed as described previously for iron uptake (Eide et al. (1992) J. Biol. Chem. 267:20774-20781) except that ^65ZnCl2 (Amersham) and LZM-EDTA were substituted for ^59FeCI3 and LIM-EDTA, respectively. Cells were incubated for 5 minutes in LZM-EDTA plus the indicated concentration of ^65Zn, collected on glass fiber filters (Schleicher and Schuell), washed with 10 ml ice-cold SSW (1 mM EDTA, 20 mM trisodium citrate, 1 mM KH2PO4, 1 mM CaCl2, 5 mM MgSO4, 1 mM NaCl pH 4.2), and cell-associated radioactivity was measured by liquid scintillation counting. Cells were starved for glucose by incubating them in LZM-EDTA prepared without glucose for one hour at 30° C. prior to assay. Michaelis-Menten kinetic values were determined using […] software (Intellikinetics, Princeton, N.J.). Stock solutions of the chloride salts of Co, Cu, Mg, Mn, and Ni were prepared in distilled water at a concentration of 100 mM. The nonradioactive ZnCl2 stock was prepared at 100 mM in 0.02 N HCl and the FeCl3 stock was prepared at 50 mM in 0.1 N HCl. The statistical significance of the differences of values relative to controls was determined with one-way analysis of variance (ANOVA) followed by a Dunnett multiple comparison test. β-galactosidase activity was assayed in cells harvested at an OD600 of 0.5-2.0 as described by Guarente (Guarente, L. (1983) Methods Enzymol. 101:181-191) and activity is expressed as the change in absorbance at 420 nm×1000 divided by (min×ml of culture used×OD600 of the culture). Cell-associated zinc was measured in parallel cultures supplemented with tracer amounts of ^65Zn (10 μM) and nonradioactive zinc to the indicated final concentration. Aliquots (0.5 ml) were filtered, washed with 10 ml ice-cold SSW, and radioactivity measured by liquid scintillation.
(§3) To determine if ZRT1 plays a role in zinc uptake, the biochemical properties of this process in wild type cells were first characterized. […] Wild type (FIG. 10, DY1457, squares) and zrt1 mutant (FIG. 10, ZHY1, circles) cells were grown to exponential phase in zinc-limited (open symbols, FIG. 10) and zinc-replete (FIG. 10, closed symbols) media and assayed for zinc uptake rate over a range ZnSO4 concentrations. Zinc-limited media was LZM+10 μM zinc for the wild type and LZM+500 μM zinc for the mutant. Zinc-replete conditions were LZM+1000 μM for both strains. ZHY1(pOE1) cells (FIG. 10, triangles) were grown in zinc-replete SDgal medium.
(§4) Mutant zrt1 (ZHY1) cells were grown in LZM supplemented with 1 mM ZnCl2. Cells were incubated with 10 μM ^65Zn for the indicated times at either […]

For experiment [2], the target named is T2, high affinity zinc uptake system (Zrt1p) (Saccharomyces cerevisiae, UniProt P32804).
T2 construct: endogenous in cells; host or cells: S. cerevisiae DY1457 (wild type, zinc-limited) and ZHY2 (zrt2); one kinetic value comes from ZHY1 carrying pOE1 (ZRT1 ORF under the GAL1 promoter)
T2 sequence (P32804 whole entry): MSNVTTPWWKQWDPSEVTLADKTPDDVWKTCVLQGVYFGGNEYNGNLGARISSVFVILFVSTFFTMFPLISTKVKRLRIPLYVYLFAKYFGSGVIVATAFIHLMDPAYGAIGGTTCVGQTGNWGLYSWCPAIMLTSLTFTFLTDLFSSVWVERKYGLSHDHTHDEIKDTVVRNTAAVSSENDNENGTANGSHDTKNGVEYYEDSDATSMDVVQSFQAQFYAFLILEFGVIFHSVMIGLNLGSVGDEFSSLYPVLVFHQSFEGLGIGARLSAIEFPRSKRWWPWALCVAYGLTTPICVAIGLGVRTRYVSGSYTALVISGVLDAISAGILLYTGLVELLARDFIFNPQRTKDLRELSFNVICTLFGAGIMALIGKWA
The experiment in a line: 65Zn uptake assay in yeast, high affinity zinc uptake system. The note with it: for effect on zinc uptake by the high affinity system: 20 μM added metal, zinc-limited wild type. How it is done: as §1, §2, §3, §4

Experiment [3] concerns the target T3, IRT1 (Arabidopsis thaliana, UniProt Q38856).
T3 construct: contain a single 1017 bp open reading frame capable of encoding a polypeptide of 339 amino acids; expressed in transfected cells; host or cells: S. cerevisiae fet3 fet4 strain DEY1453 carrying pIRT-1 (pFL61 library vector, phosphoglycerate kinase promoter)
T3 sequence (Q38856 9-347 limits assumed): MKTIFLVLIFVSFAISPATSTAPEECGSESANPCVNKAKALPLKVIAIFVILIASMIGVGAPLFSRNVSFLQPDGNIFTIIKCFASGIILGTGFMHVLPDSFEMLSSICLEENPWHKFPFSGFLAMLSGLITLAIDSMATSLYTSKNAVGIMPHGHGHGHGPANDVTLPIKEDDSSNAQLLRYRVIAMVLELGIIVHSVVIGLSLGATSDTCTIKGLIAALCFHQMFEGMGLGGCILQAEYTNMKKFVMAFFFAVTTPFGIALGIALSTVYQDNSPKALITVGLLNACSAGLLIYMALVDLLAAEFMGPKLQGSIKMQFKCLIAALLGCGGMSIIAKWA
The experiment in a line: 55Fe uptake in fet3 fet4 yeast expressing IRT1. Particulars: metal at 100-fold excess.

[4] abbreviates: zrt1 cells grown in SD glucose supplemented with 2 mM ZnCl2.

T1 sequence (Q12436 whole entry): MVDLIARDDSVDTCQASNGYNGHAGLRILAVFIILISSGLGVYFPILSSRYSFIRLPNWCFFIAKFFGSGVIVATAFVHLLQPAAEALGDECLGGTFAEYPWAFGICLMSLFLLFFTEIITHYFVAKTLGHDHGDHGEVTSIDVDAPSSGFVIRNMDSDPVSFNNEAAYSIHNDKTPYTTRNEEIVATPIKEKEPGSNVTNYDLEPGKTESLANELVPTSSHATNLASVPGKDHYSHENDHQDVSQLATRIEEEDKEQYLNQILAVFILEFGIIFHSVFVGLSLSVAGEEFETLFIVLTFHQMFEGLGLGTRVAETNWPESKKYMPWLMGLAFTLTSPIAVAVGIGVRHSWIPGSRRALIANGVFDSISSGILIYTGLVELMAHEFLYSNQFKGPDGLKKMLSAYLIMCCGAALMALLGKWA

As for `[Zn+2]` [zinc], the “control rate of zinc uptake” value is on record as 0.9 pmol/min/10^6 cells in experiment [1] (20 μM 65Zn, five minutes, zrt1 (ZHY1) grown in LZM + 1 mM ZnCl2, no other metal) and 47 pmol/min/10^6 cells in experiment [2] (2 μM 65Zn, five minutes, wild type grown in LZM + 10 μM ZnCl2, no other metal). For the same compound, the “uptake rate of radioactive zinc, % of the control rate” value (from here on “uptake rate … % of the control rate”) in experiment [1] (20 μM 65Zn, five minutes) was “approximately 10%”. In addition, the “rate of zinc uptake of pMC4 transformants relative to vector control” value in experiment [1] (ZHY1 (zrt1) with pMC4 vs YEp24, SD glucose, all 65Zn concentrations tested) is recorded as “approximately 15 fold”. Also, the Vmax in experiment [1] (ZHY1 (zrt1) with plasmid pMC4, SD glucose, mean ± SE) is listed as 28 ± 1 pmol/min/10^6; in experiment [1] (ZHY1 (zrt1) with plasmid pOE2 (GAL1-ZRT2), SD galactose, mean ± SE), 17 ± 2 pmol/min/10^6; in experiment [1] (ZHY1 (zrt1) with vector (YEp24, control for pMC4), SD glucose, mean ± SE) it was 2.2 ± 0.1 pmol/min/10^6; in experiment [1] (ZHY1 (zrt1) with vector (pRS316-GAL1, control for pOE2), SD galactose, mean ± SE), 2.0 ± 0.1 pmol/min/10^6; in experiment [1] (wild type, high growth medium [Zn] (LZM + 1.5 mM ZnCl2), mean ± SE), 0.60 ± 0.03 pmol/min/10^6; in experiment [1] (zrt1, high growth medium [Zn], mean ± SE), 0.52 ± 0.04 pmol/min/10^6. For the same compound, the Vmax is 76 ± 2 pmol/min/10^6 in experiment [2] (wild type, low growth medium [Zn] (LZM + 10 μM ZnCl2), mean ± SE); 0.31 ± 0.01 pmol/min/10^6 in experiment [2] (zrt2, high growth medium [Zn] (LZM + 1.5 mM ZnCl2), mean ± SE); 60 ± 2 pmol/min/10^6 in experiment [2] (zrt2, low growth medium [Zn], mean ± SE). In addition, the Km in experiment [1] (ZHY1 (zrt1) with plasmid pMC4, SD glucose, total zinc, mean ± SE, read-out: Km) was 8 ± 0.4 µM; in experiment [1] (ZHY1 (zrt1) with plasmid pOE2 (GAL1-ZRT2), SD galactose, total zinc, mean ± SE, read-out: Km), 3.6 ± 0.1 µM; in experiment [1] (ZHY1 (zrt1) with vector (YEp24, control for pMC4), SD glucose, total zinc, mean ± SE, read-out: Km), 9.5 ± 0.8 µM; in experiment [1] (ZHY1 (zrt1) with vector (pRS316-GAL1, control for pOE2), SD galactose, total zinc, mean ± SE, read-out: Km), 10 ± 1 µM; in experiment [1] (calculated free zinc, read-out: apparent Km of the low affinity system, free zinc), approximately 0.1 µM; in experiment [1] (total zinc, read-out: apparent Km of the low affinity system), 10 µM. Besides, the Km was 15 ± 3 µM in experiment [1] (wild type, high growth medium [Zn] (LZM + 1.5 mM ZnCl2), total zinc, mean ± SE, read-out: Km); 10 ± 1 µM in experiment [1] (wild type, zinc-replete cells (LZM+1000 μM), read-out: apparent Km of zinc uptake); 10 ± 1 µM in experiment [1] (zrt1, high growth medium [Zn], total zinc, mean ± SE, read-out: Km); 10 ± 1 µM in experiment [1] (zrt1 mutant cells grown in zinc-limiting and zinc-replete media, read-out: apparent Km of zinc uptake); 0.6 ± 0.1 µM in experiment [2] (ZHY1(pOE1), ZRT1 expressed from GAL1 promoter, zinc-replete cells, galactose, read-out: apparent Km of zinc uptake); approximately 0.01 µM in experiment [2] (calculated free zinc, read-out: apparent Km of the high affinity system, calculated free zinc concentration). The Km in experiment [2] (total zinc, read-out: apparent Km of the high affinity system, total zinc) amounted to 1 µM; in experiment [2] (wild type DY1457, zinc-limited cells (LZM+10 μM zinc), read-out: apparent Km of zinc uptake), 1 ± 0.1 µM; in experiment [2] (wild type, low growth medium [Zn] (LZM + 10 μM ZnCl2), total zinc, mean ± SE, read-out: Km), 0.52 ± 0.07 µM; in experiment [2] (zrt2, high growth medium [Zn] (LZM + 1.5 mM ZnCl2), total zinc, mean ± SE, read-out: Km), 0.4 ± 0.04 µM; in experiment [2] (zrt2, low growth medium [Zn], total zinc, mean ± SE, read-out: Km), 0.85 ± 0.18 µM. The zinc accumulation result is listed as “no detectable zinc accumulation” in experiment [1] (glucose-starved zrt1 cells, five minutes) and 3.7 pmol/10^6 cells in experiment [1] (zrt1 cells incubated with glucose, five minutes). Further, the “Vmax of zinc uptake” value in experiment [1] (zinc-replete cells) is given as 2 pmol/min/10^6 cells; in experiment [1] (zrt1 mutant cells grown in zinc-limiting and zinc-replete media) it was 1-2 pmol/min/10^6 cells; in experiment [2] (ZHY1(pOE1), ZRT1 expressed from GAL1 promoter, zinc-replete cells, galactose) it was 30 pmol/min/10^6 cells; in experiment [2] (wild type DY1457, zinc-limited cells (LZM+10 μM zinc)), 80 pmol/min/10^6 cells. In addition, the zinc uptake rate in experiment [1] (setting [4]) is listed as 0.12 pmol/min/106 cells; in experiment [1] (zrt1 cells grown in zinc-replete SD glucose, assayed at 10, M 65Zn), 1.7 pmol/min/10^6 cells. Also, the “zinc uptake rate relative to untreated cells” value in experiment [1] (setting [4]) was 7%. Moreover, in experiment [2] (2 μM 65Zn, five minutes), the “effect on zinc uptake by the high affinity system” value is “inhibitory”. Besides, the “inhibition of IRT1-dependent iron uptake” value in experiment [3] is given as “inhibit IRT1-dependent iron uptake”.
With `[Cl-].[Cl-].[Co+2]` [Co], in experiment [1] (20 μM 65Zn, five minutes), the “effect on zinc uptake by the low affinity system” value is “did not diminish zinc uptake”. Also, the “effect on zinc uptake by the high affinity system” value in experiment [2] (2 μM 65Zn, five minutes) is reported as “unaffected”. In addition, the “inhibition of IRT1-dependent iron uptake” value in experiment [3] is on record as “inhibit IRT1-dependent iron uptake”.
As for `[Cl][Mn][Cl]` [Mn], the “effect on zinc uptake by the low affinity system” value in experiment [1] (20 μM 65Zn, five minutes) was “did not diminish zinc uptake”. Also, in experiment [2] (2 μM 65Zn, five minutes), the “effect on zinc uptake by the high affinity system” value was “unaffected”. The “inhibition of IRT1-dependent iron uptake” value in experiment [3] was “inhibit IRT1-dependent iron uptake”.
`[Cl][Cu][Cl]` [Cu]: the “uptake rate … % of the control rate” value in experiment [1] (20 μM 65Zn, five minutes) came out at 32%. Further, in experiment [1], the “inhibition of pMC4- and pOE2-dependent zinc uptake activity” value is listed as “inhibited”. Also, the “effect on zinc uptake by the high affinity system” value in experiment [2] (2 μM 65Zn, five minutes) is “inhibitory”.
For `[Cl][Fe]([Cl])[Cl]` [Fe(III)], the “effect on zinc uptake by the low affinity system” value in experiment [1] (20 μM 65Zn, five minutes) was “did not diminish zinc uptake”. Moreover, the “effect on zinc uptake by the high affinity system” value in experiment [2] (2 μM 65Zn, five minutes) is given as “unaffected”.
The like results for `[Cl][Ni][Cl]` [Ni] were, in that order, “did not diminish zinc uptake” and “unaffected”.
As for `[Fe+2]` [Fe(II)], in experiment [1] (20 μM 65Zn, five minutes), the “uptake rate … % of the control rate” value was found to be 79%. Also, in experiment [1], the “inhibition of pMC4- and pOE2-dependent zinc uptake activity” value is “inhibited”. Also, in experiment [2] (2 μM 65Zn, five minutes), the “effect on zinc uptake by the high affinity system” value is reported as “inhibitory”.

(Values after patent publication US6590140B1, “Metal-regulated transporters and uses therefor” (Trustees of Dartmouth College, priority 1996, dated 2003).)
